Test results taken from US6822146B2, “Sulfonylurea-tolerant sunflower line M7” (priority 2000, dated 2004).
Where two headings read alike, the source gives them in different places.

Assays:
GA-M4M11 × RHA274 = assay: Test A field trial, phytotoxicity, variety D; type: in vivo, sunflower
Source text: (§1) To generate the hybrids C, D and E, the fourth generation self-pollinated maintainer mutant lines M4M12, M4M11 and M4M7 were chemically sterilized by applying at the bud “star” flower stage a small amount of gibberellic acid solution to sterilize the pollen according to the general method described in Sunflower Science Technology, J. F. Carter ed. (Number 19 in the series “Agronomy”) pp. 339-386. This treatment enables maintainer plants to behave as CMS inbred lines and allows the production of heterozygous resistant hybrids, with the herbicide resistant source coming from the female side. Such crosses allowed evaluating the sexual effect of the mutation source when introduced on the female side of a cross as described in crosses C, D and E versus the male side of a cross as described in crosses F, G and H. Labels I, J and K identify third generation CMS mutant lines crossed with fourth generation maintainer lines to maintain the highly heritable mutant trait in a male sterile homozygous resistant environment. One skilled in sunflower breeding art understands the meaning of such crosses.
(§2) A rating of 0% phytotoxicity means no crop injury.

GA-M4M12 × RHA274 = assay: Test A field trial, phytotoxicity, variety C; type: in vivo, sunflower
Source text: as §1, §2

[1] = test system: H89A × RHA274 (sulfonylurea-susceptible hybrid); assay: Test G control of volunteer sunflower, H89A × RHA274; type: in vivo; conditions: rated 4 weeks after application, scale 0-100
BC3-M4M11 = assay: Test A field trial, phytotoxicity, variety J; type: in vivo, sunflower
Source text: as §1, §2

BC2-M3M12 = assay: Test G control of volunteer sunflower, BC2-M3M12; type: in vivo; conditions: rated 4 weeks after application, scale 0-100
H89A × M4M7 = type: in vivo, sunflower; conditions: variety H
Source text: as §1, §2

[2] = test system: Hybrid control: H89A × RHA274; type: in vivo, sunflower; conditions: variety A
Source text: as §1, §2

[3] = test system: Inbred line control: H89A; type: in vivo, sunflower; conditions: variety B
Source text: as §1, §2

H89A × M4M12 = type: in vivo, sunflower; conditions: variety F
Source text: as §1, §2

H89A × M4M11 = type: in vivo, sunflower; conditions: variety G
Source text: as §1, §2

Orobanche cumana = assay: Test E control of Orobanche cumana in resistant sunflower hybrid; type: in vivo; conditions: for relative efficacy in controlling Orobanche: Test E rates, metsulfuron-methyl compared with tribenuron-methyl
Outline: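 Resistant sunflower hybrid BC4-M5M12×PHA155 in pots, three replications; herbicides as seed coating, pre-emergence spray 2 days after sowing (high rate, not incorporated), or post-emergence at 4-6, 6-8 (high and low rates) or 8-12 leaf stage. Orobanche nodules scored visually and by root wet mass 35 days after sowing.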

BC3-M4M7 = assay: Test A field trial, phytotoxicity, variety K; type: in vivo, sunflower
Source text: as §1, §2

[4] = test system: mutants originating from M11 and M12; conditions: tribenuron-methyl up to 60 g a.i./ha; others at Test G rates
Source text: This test involved sulfonylurea-resistant sunflower progeny BC2-M3M11 and BC2-M3M12, derived from M11 and M12, respectively. Also, a sulfonylurea-susceptible hybrid, H89A×RHA274, was included for comparison. Plants were sprayed with formulated herbicides at the 4-leaf stage. The efficacy of the treatments on the sunflowers was visually rated 4 weeks after application, using a scale where 0 means no control of the sunflowers, 85 means sufficient efficacy level to stop plants from flowering and propagating, and 100 means a complete destruction of the mutants.
Weed control in sugar beet requires 2-3 herbicide applications per season to efficiently control weeds in this slow growing crop.

BC4-M5M12 × PHA155 = assay: Test C field phytotoxicity, BC4-M5M12 × PHA155; type: in vivo, sunflower
Source text: as §2

GA-M4M7 × RHA274 = assay: Test A field trial, phytotoxicity, variety E; type: in vivo, sunflower
Source text: as §1, §2

BC3-M4M12 = assay: Test A field trial, phytotoxicity, variety I; type: in vivo, sunflower
Source text: as §1, §2

BC2-M3M11 = assay: Test G control of volunteer sunflower, BC2-M3M11; type: in vivo; conditions: rated 4 weeks after application, scale 0-100
[5] = 6 g a.i./ha post-emergence, without Citowet

Structure (SMILES): COC(=O)c1cccc(C)c1S(=O)(=O)NC(=O)Nc1nc(OCC(F)(F)F)nc(N(C)C)n1 [Triflusulfuron-methyl, triflusulfuron-methyl]
- Maximum Phytotoxicity (GA-M4M11 × RHA274; variety D, 20 g a.i./ha post-emergence): 19%
- Maximum Phytotoxicity (GA-M4M11 × RHA274; variety D, 40 g a.i./ha post-emergence): 40%
- Maximum Phytotoxicity (GA-M4M12 × RHA274; variety C, 20 g a.i./ha post-emergence): 19%
- Maximum Phytotoxicity (GA-M4M12 × RHA274; variety C, 40 g a.i./ha post-emergence): 38%
- Efficacy on H89A × RHA274 ([1]; 15 g a.i./ha): 82
- Maximum Phytotoxicity (BC3-M4M11; variety J, 20 g a.i./ha post-emergence): 6%
- Maximum Phytotoxicity (BC3-M4M11; variety J, 40 g a.i./ha post-emergence): 14%
- Efficacy on BC2-M3M12 (BC2-M3M12; 15 g a.i./ha): 8
- Maximum Phytotoxicity (H89A × M4M7; 20 g a.i./ha post-emergence): 10%
- Maximum Phytotoxicity (H89A × M4M7; 40 g a.i./ha post-emergence): 33%
- Maximum Phytotoxicity ([2]; 20 g a.i./ha post-emergence): 100%
- Maximum Phytotoxicity ([2]; 40 g a.i./ha post-emergence): 100%
- Maximum Phytotoxicity ([3]; 20 g a.i./ha post-emergence): 100%
- Maximum Phytotoxicity ([3]; 40 g a.i./ha post-emergence): 100%
- Maximum Phytotoxicity (H89A × M4M12; 20 g a.i./ha post-emergence): 16%
- Maximum Phytotoxicity (H89A × M4M12; 40 g a.i./ha post-emergence): 33%
- Maximum Phytotoxicity (H89A × M4M11; 20 g a.i./ha post-emergence): 15%
- Maximum Phytotoxicity (H89A × M4M11; 40 g a.i./ha post-emergence): 36%
- relative efficacy in controlling Orobanche (Orobanche cumana): less efficacious in controlling Orobanche
- Control (Orobanche cumana; post-emergence 18.75 g a.i./ha at T2): 75%
- Maximum Phytotoxicity (BC3-M4M7; variety K, 20 g a.i./ha post-emergence): 8%
- Maximum Phytotoxicity (BC3-M4M7; variety K, 40 g a.i./ha post-emergence): 10%
- resistance/tolerance of the mutants [4]: to a lesser extent than with tribenuron-methyl
- Phytotoxicity Rating After Treatment (BC4-M5M12 × PHA155; postemergence 7.5 g a.i./ha, 7 DAT): 22%
- Phytotoxicity Rating After Treatment (BC4-M5M12 × PHA155; postemergence 7.5 g a.i./ha, 15 DAT): 22%
- Phytotoxicity Rating After Treatment (BC4-M5M12 × PHA155; postemergence 7.5 g a.i./ha, 30 DAT): 25%
- Phytotoxicity Rating After Treatment (BC4-M5M12 × PHA155; postemergence 15 g a.i./ha, 7 DAT): 38%
- Phytotoxicity Rating After Treatment (BC4-M5M12 × PHA155; postemergence 15 g a.i./ha, 15 DAT): 45%
- Phytotoxicity Rating After Treatment (BC4-M5M12 × PHA155; postemergence 15 g a.i./ha, 30 DAT): 43%
- Maximum Phytotoxicity (GA-M4M7 × RHA274; variety E, 20 g a.i./ha post-emergence): 20%
- Maximum Phytotoxicity (GA-M4M7 × RHA274; variety E, 40 g a.i./ha post-emergence): 38%
- Maximum Phytotoxicity (BC3-M4M12; variety I, 20 g a.i./ha post-emergence): 4%
- Maximum Phytotoxicity (BC3-M4M12; variety I, 40 g a.i./ha post-emergence): 13%
- Efficacy on BC2-M3M11 (BC2-M3M11; 15 g a.i./ha): 13

Structure (SMILES): COC(=O)c1ccccc1S(=O)(=O)NC(=O)Nc1nc(C)nc(OC)n1 [Metsulfuron-methyl, metsulfuron-methyl]
- Maximum Phytotoxicity (GA-M4M11 × RHA274; in vivo): 7%
- Maximum Phytotoxicity (GA-M4M12 × RHA274; in vivo): 8%
- Efficacy on H89A × RHA274 ([1]; 4 g a.i./ha): 100
- Maximum Phytotoxicity (BC3-M4M11; in vivo): 11%
- Efficacy on BC2-M3M12 (BC2-M3M12; 4 g a.i./ha): 18
- Maximum Phytotoxicity (H89A × M4M7; [5]): 4%
- Maximum Phytotoxicity [2, 5]: 100%
- Maximum Phytotoxicity [3, 5]: 100%
- Maximum Phytotoxicity (H89A × M4M12; [5]): 4%
- Maximum Phytotoxicity (H89A × M4M11; [5]): 6%
- relative efficacy in controlling Orobanche (Orobanche cumana): more efficacious in controlling Orobanche
- Control (Orobanche cumana; post-emergence 3 + 3 g a.i./ha at T1 + T3): 96%
- Control (Orobanche cumana; post-emergence 3 + 3 g a.i./ha at T1 + T3, listed as metsulfuron-methyl): excellent level of Orobanche control
- Control (Orobanche cumana; post-emergence 6 g a.i./ha at T2): 97%
- Control (Orobanche cumana; pre-emergence 3 + post-emergence 3 g a.i./ha at T2): 87%
- Control (Orobanche cumana; pre-emergence 6 g a.i./ha (r19)): 30%
- Maximum Phytotoxicity (BC3-M4M7; in vivo): 8%
- resistance/tolerance of the mutants [4]: to a lesser extent than with tribenuron-methyl
- Maximum Phytotoxicity (GA-M4M7 × RHA274; in vivo): 0%
- Maximum Phytotoxicity (BC3-M4M12; in vivo): 7%
- Efficacy on BC2-M3M11 (BC2-M3M11; 4 g a.i./ha): 8

Structure (SMILES): COC(=O)c1ccccc1S(=O)(=O)NC(=O)N(C)c1nc(C)nc(OC)n1 [Tribenuron-methyl, tribenuron-methyl]
- Maximum Phytotoxicity (GA-M4M11 × RHA274; in vivo): 6%
- Maximum Phytotoxicity (GA-M4M12 × RHA274; in vivo): 0%
- Efficacy on H89A × RHA274 ([1]; 10 g a.i./ha, 4-leaf stage): 100
- Efficacy on H89A × RHA274 ([1]; 20 g a.i./ha): 100
- Efficacy on H89A × RHA274 ([1]; 40 g a.i./ha): 100
- Efficacy on H89A × RHA274 ([1]; 60 g a.i./ha): 100
- Maximum Phytotoxicity (BC3-M4M11; in vivo): 0%
- Efficacy on BC2-M3M12 (BC2-M3M12; 10 g a.i./ha): 0
- Efficacy on BC2-M3M12 (BC2-M3M12; 20 g a.i./ha): 0
- Efficacy on BC2-M3M12 (BC2-M3M12; 40 g a.i./ha): 0
- Efficacy on BC2-M3M12 (BC2-M3M12; 60 g a.i./ha): 14
- Maximum Phytotoxicity (H89A × M4M7; 22.5 g a.i./ha post-emergence): 0%
- Maximum Phytotoxicity ([2]; 22.5 g a.i./ha post-emergence): 100%
- Maximum Phytotoxicity ([3]; 22.5 g a.i./ha post-emergence): 100%
- Maximum Phytotoxicity (H89A × M4M12; 22.5 g a.i./ha post-emergence): 0%
- Maximum Phytotoxicity (H89A × M4M11; 22.5 g a.i./ha post-emergence): 3%
- Control (Orobanche cumana; 22.5 g a.i./ha printed in pre-emergence column (first such row, r7), host BC4-M5M12 × PHA155): 70%
- Control (Orobanche cumana; post-emergence 11.25 + 11.25 g a.i./ha at T1 + T3): 90%
- Control (Orobanche cumana; post-emergence 22.5 g a.i./ha at T2): 75%
- Control (Orobanche cumana; pre-emergence 11.25 + post-emergence 11.25 g a.i./ha at T2): 78%
- Control (Orobanche cumana; pre-emergence 22.5 g a.i./ha (r18)): 0%
- Control (Orobanche cumana; seed coating 11.25 + post-emergence 11.25 g a.i./ha at T2): 88%
- Maximum Phytotoxicity (BC3-M4M7; in vivo): 4%
- resistance/tolerance of the mutants [4]: excellent to very good level of resistance
- Phytotoxicity Rating After Treatment (BC4-M5M12 × PHA155; postemergence 11.25 g a.i./ha, 15 DAT): 18%
- Maximum Phytotoxicity (GA-M4M7 × RHA274; in vivo): 2%
- Maximum Phytotoxicity (BC3-M4M12; in vivo): 4%
- Efficacy on BC2-M3M11 (BC2-M3M11; 10 g a.i./ha): 0
- Efficacy on BC2-M3M11 (BC2-M3M11; 20 g a.i./ha): 0
- Efficacy on BC2-M3M11 (BC2-M3M11; 40 g a.i./ha): 3
- Efficacy on BC2-M3M11 (BC2-M3M11; 60 g a.i./ha): 10
